Assay results: US4032536A, “(1H-Benzimidazol-2-yl)carbamates” (Janssen Pharmaceutica N.V., priority 1976, dated 1977)

Legend:
Syphacia muris = assay: Activity against Syphacia muris in rats; format: in vivo; conditions: po, 120 h, orally by gavage, autopsy five days after treatment
Description: A. Activity against Syphacia muris in rats.
(§1) Syphacia muris was selected as a test organism since this organism manifests its relationship with the human oxyuris, Enterobin vermicularis,by its life cycle, by the cyclical period of activity and by laying its eggs in the peri-anal zone. For artificial infections, adhesive cellophane tape is used to recover the eggs from the peri-anal skin and this tape is administered orally to rats. The thus-infected animals are housed in individual cages with food and water ad libitum. The compound to be tested is administered orally by gavage. A sterile saline solution or suspension of the compound is made at various concentrations corresponding to 40, 10, 2.5, 1.25, 0.63, 0.31 and 0.16 mg/kg body weight. Control animals receive the same amount of saline. Five days thereafter the animals are sacrificed. Coecum, colon and rectum are isolated and washed on a sieve of mesh 100. Table I gives the ED50 -values for a number of the compounds of formula (I). The compounds listed therein are not given for the purpose of limiting the invention thereto but only to exemplify the useful anthelmintic properties of all the compounds within the scope of formula (I).

Strongyloides ratti = assay: Activity against Strongyloides ratti in rats; format: in vivo; conditions: po, young male Wistar rats, orally, treated on day 7 after infection, autopsied day 13, 50% reduction of number of worms vs untreated controls
Description: as §1
B. Activity against Strongyloides ratti in rats.
Young male Wistar rats, weighing about 100 g are used in this test. Infective larvae of Strongyloides ratti are collected from charcoal cultures, put into a beaker with tapwater and stirred magnetically for counting. The rats are infected subcutaneously with about 1000 larvae, treated on day 7 after infection in the same manner as described in experiment A, and autopsied on day 13. The anterior part of the intestine is divided into two sections, each of 10 cm. length and placed inside out on a wood-applicator. These sections are incubated in physiological saline for 4 hours at 37° C. Worms obtained from the sedimentation of incubation saline are sampled and counted under a dissection microscope. In table I are given ED50 -values for a number of compounds of formula (I). These ED50 -values represent the amount of the compound under investigation in mg/kg which reduces the number of worms 50% with respect to the number found in the untreated control animals.

Compound `COC(=O)Nc1nc2ccc(C3(c4cccs4)OCCO3)cc2[nH]1` has an ED50 (Syphacia muris) of 2.5 mg/kg and an ED50 (Strongyloides ratti) of 2.5 mg/kg.
In the case of `COC(=O)Nc1nc2ccc(C3(c4cccs4)OCC(C)(C)CO3)cc2[nH]1`, the ED50 (Syphacia muris) is reported as 40 mg/kg and the ED50 (Strongyloides ratti) is reported as 10 mg/kg.
For `COC(=O)Nc1nc2ccc(C3(c4ccccc4)OCC(C)O3)cc2[nH]1` (stereo not shown), the ED50 (Syphacia muris) was 2.5 mg/kg and the ED50 (Strongyloides ratti) was 0.31 mg/kg.
In the case of `COC(=O)Nc1nc2ccc(C3(c4ccccc4)OCCC(C)O3)cc2[nH]1` (stereo not shown), the ED50 (Syphacia muris) is reported as 40 mg/kg and the ED50 (Strongyloides ratti) is reported as 1.25 mg/kg.
For `COC(=O)Nc1nc2ccc(C3(c4cccs4)OCC(C)O3)cc2[nH]1` (stereo not shown), the ED50 (Syphacia muris) was 10 mg/kg and the ED50 (Strongyloides ratti) was 10 mg/kg.
`COC(=O)Nc1nc2ccc(C3(c4cccs4)OC(C)C(C)O3)cc2[nH]1` (stereo not shown) was tested, and the ED50 (Syphacia muris) was 2.5 mg/kg and the ED50 (Strongyloides ratti) was 10 mg/kg.
`COC(=O)Nc1nc2ccc(C3(c4cccs4)OCCC(C)O3)cc2[nH]1` (stereo not shown) gave an ED50 (Syphacia muris) of 10 mg/kg and an ED50 (Strongyloides ratti) of 10 mg/kg.
`COC(=O)Nc1nc2ccc(C3(c4ccccc4)OC(C)C(C)O3)cc2[nH]1` (stereo not shown) was tested, and the ED50 (Syphacia muris) was 2.5 mg/kg and the ED50 (Strongyloides ratti) was 1.25 mg/kg.
`COC(=O)Nc1nc2ccc(C3(c4ccccc4)OCCO3)cc2[nH]1` gave an ED50 (Syphacia muris) of 1.25 mg/kg and an ED50 (Strongyloides ratti) of 0.63 mg/kg.
Work on `COC(=O)Nc1nc2ccc(C3(c4ccc(F)cc4)OCCO3)cc2[nH]1` yielded an ED50 (Syphacia muris) of 5 mg/kg and an ED50 (Strongyloides ratti) of 0.31 mg/kg.
For `COC(=O)Nc1nc2ccc(C3(c4ccccc4)OCC(C)(C)CO3)cc2[nH]1`, the ED50 (Syphacia muris) was 10 mg/kg and the ED50 (Strongyloides ratti) was 2.5 mg/kg.
